Results as given in patent US20220220100A1 (SOLUTIA CANADA INC., priority 2019, published 2022).

Key:
Assay type in all cases: physicochemical
[1] = Oxidation potential of ring-closed and ring-open isomers; conditions: no unit printed in table (V relative to Ag/AgCl)
Description: In various embodiments, at a PSS, some of the chromophore will be in the ring-closed isomer, with a small, but non-zero portion of ring-open isomer. The oxidation potential of a ring-open isomer may be more anodic than the oxidation potential of a ring-closed isomer. Exposure to a potential that is too far beyond what is necessary to oxidize the ring-closed isomer may result in oxidation of the ring-open isomer, which may be irreversible and result in electrochemically-induced degradation of the chromophore.
Thus, in various embodiments, an anodic chromophore may have an oxidation potential of from about 0.4 V to 1.2 V for the ring-closed isomer and about 1.0 V to 2.5 V for the ring-open isomer relative to an Ag/AgCl reference electrode. In various embodiments, the oxidation potential for the ring-open isomer is about 250 mV more anodic than the oxidation potential for the ring-closed isomer. For example, the oxidation potential may be about 260 mV, about 280 mV, about 300 mV, about 320 mV, about 340 mV, about 360 mV, about 380 mV, about 400 mV, about 420 mV, about 440 mV, or about 460 mV more anodic than the oxidation potential for the ring-closed isomer.

[2] = Solubility in Rhodiasolv IRIS solvent; conditions: for Solubility in Rhodiasolv IRIS: Rhodiasolv IRIS (dimethyl-2-methyl glutarate), wt %
Description: A compound with greater solubility allows for a formulation or material with a greater concentration of coloured molecule to be incorporated into a composition. This may allow for increasing the contrast ratio for a compound with a lesser absorbance at PSS. Examples of solubilizing groups for the compound include alkoxy, ether, ester or siloxy groups. In various embodiments, compounds may be soluble in the solvent component at room temperature at about 6 wt %, 7 wt %, 8 wt %, 9 wt %, 10 wt % or greater for testing to determine whether a compound has application as an exterior glazing or optical filter. If the solubility of a compound in the solvent component is too low, then insufficient darkening may be achieved in the ring-closed configuration, depending on conditions of use for the compound.
Chromophore solutions in Rhodiasolv IRIS were prepared at 1 to 10 wt % loading. Solutions were prepared in a glovebox by charging the chromophore and Rhodiasolv IRIS to a trace-clean vial, and the solution was stirred on a hotplate at 90° C. for 2-24 hours. After cooling, the chromophore solution was injected into glass weathering cells and the fill and vent ports were sealed with a thin disc of Kalrez (FFKM Perfluorinated Elastomer) and secured with a clamp and set-screw. The weathering cells were filled and sealed inside the glove box.

[3] = Photostationary state (PSS) and lambda max under simulated sunlight (solar simulator); conditions: for PSS (Steady State): head of Table 3; for PSS (Steady State) / PSS (SS): absorbance at photostationary state, 2×10^−5 M solution; for λmax (nm): peak in the visible range, ring-closed (dark) state; for PSS (SS): simulated sunlight (solar simulator)
Description: The term “photostationary state” (PSS) refers to an equilibrium state of a compound or material where the rate of the ring closing (forward) reaction is equal to the rate of the ring-opening reaction, when irradiated with light in a given region of the spectrum. In other words, the ratio of the ring-open isomer to the ring-closed isomer is at an equilibrium. PSS may be expressed with reference to a light source, or with reference to a type of light, for example, QUV, Xenon-arc lamp, Q-SUN, natural or filtered sunlight, UV, VIS, IR, NIR, full spectrum or the like, or with reference to a particular wavelength or range of wavelengths, or in the presence or absence of a filter. Some ring-open and ring-closed isomers may undergo isomerization from one to the other in response to different wavelengths of light. If a wavelength of light is used where only one of the isomers absorbs, irradiation results in complete isomerization to the other form. 254 nm, 313 nm or 365 nm light are commonly used in studies of UV-absorbing isomers, but this may not be representative of the PSS under other light conditions that include the visible spectrum such as natural or simulated sunlight (“full spectrum” light) and/or with filters that block a portion of the UV component of the light. For example, in a ring-closed (dark) state, the magnitude of the maximum absorbance in the visible range may change with the light source (FIG. 1). The wavelength at this peak in the visible range may be referred to as lambda max, or λmax. […] When full spectrum light from a solar simulator (Xenon arc lamp) is used as a light source (line B), a balance is achieved between the ring-closed (dark) state induced by the UV component, and a ring-open (faded) state induced by the visible component of the light. Inclusion of a UV blocking layer in the light path (line A) may reduce the UV component of the light, and the ring-opening reaction induced by the visible light component becomes more prominent. […] Where desired, the ratio of ring-open and ring-closed isomers at a PSS may be quantified by ^1H NMR spectroscopy, such as described in U.S. Pat. No. 7,777,055. In various embodiments, compounds with an increased absorbance at a photostationary state (PSS), or increased contrast ratio, are an improvement over other diarylethene compounds. A compound with a greater absorbance in the visible range can be used in lesser quantities in a formulation or material to achieve a desired contrast ratio, whereas a compound with a lower absorbance at a PSS may need a higher concentration to achieve a desired contrast ratio.
Photostationary State (PSS)
UV/Vis spectra were obtained using an OceanOptics™ Spectrophotometer. A 2×10^−5 M solution of compound in solvent was prepared, and photofaded using visible light until absorption in the visible region of the spectrum stabilized. The sample was then irradiated with simulated sunlight (QSUN SS-150 Solar Simulator with xenon arc lamp) until the absorption spectrum stabilized. To obtain PSS in the presence of a UV blocking film, a second sample was prepared and irradiated as described, with a UV blocking film inserted in the light path when irradiating.

## COc1cc2oc(-c3ccc(C(C)(C)C)cc3)c(C3=C(c4cc(-c5ccc(C(C)(C)C)s5)sc4-c4sc(C(C)(C)C)cc4C)C(F)(F)C(F)(F)C3(F)F)c2cc1OC [Chromophore S378, 2-(4-(tert-butyl)phenyl)-3-(2-(5,5″-di-tert-butyl-3-methyl-[2,2′:5′,2″-terthiophen]-3′-yl)-3,3,4,4,5,5-hexafluorocyclopent-1-en-1-yl)-5,6-dimethoxybenzofuran]
[1]
  RC [O] (oxidation potential of ring-closed isomer): 0.9
  RO [O] (oxidation potential of ring-open isomer): 1.36
[2]
  Solubility in Rhodiasolv IRIS: <5%
[3]
  PSS (Steady State): 0.351
  λmax (nm): 593 nm

## CCOC(=O)CCCOc1cc2oc(-c3ccc(C(C)(C)C)cc3)c(C3=C(c4cc(-c5ccc(C(C)(C)C)s5)sc4-c4sc(C(C)(C)C)cc4C)C(F)(F)C(F)(F)C3(F)F)c2cc1OCCCC(=O)OCC [Chromophore S383, diethyl 4,4′-((2-(4-(tert-butyl)phenyl)-3-(2-(5,5″-di-tert-butyl-3-methyl-[2,2′:5′,2″-terthiophen]-3′-yl)-3,3,4,4,5,5-hexafluorocyclopent-1-en-1-yl)benzofuran-5,6-diyl)bis(oxy))dibutanoate]
[1]
  RC [O] (oxidation potential of ring-closed isomer): 0.91
  RO [O] (oxidation potential of ring-open isomer): 1.36
[2]
  Solubility in Rhodiasolv IRIS: >10%
[2]; relative to the methoxy parent chromophore
  Solubility (in words): improved solubility
[3]
  PSS (Steady State): 0.408
  λmax (nm): 590 nm

## CCOC(=O)CCCOc1cc2oc(-c3ccc(C(C)(C)C)cc3)c(C3=C(c4cc(-c5sc(C(C)(C)C)cc5C)sc4-c4sc(C(C)(C)C)cc4C)C(F)(F)C(F)(F)C3(F)F)c2cc1OCCCC(=O)OCC [Chromophore S384, diethyl 4,4′-((2-(4-(tert-butyl)phenyl)-3-(2-(5,5″-di-tert-butyl-3,3″-dimethyl-[2,2′:5′,2″-terthiophen]-3′-yl)-3,3,4,4,5,5-hexafluorocyclopent-1-en-1-yl)benzofuran-5,6-diyl)bis(oxy))dibutanoate]
[1]
  RC [O] (oxidation potential of ring-closed isomer): 0.87
  RO [O] (oxidation potential of ring-open isomer): 1.31
[2]
  Solubility in Rhodiasolv IRIS: >10%
[3]
  PSS (Steady State): 0.342
  λmax (nm): 593 nm

## CCOC(=O)CCCOc1cc2oc(-c3ccc(C(C)(C)C)cc3)c(C3=C(c4cc(-c5cc(C(C)(C)C)cs5)sc4-c4cc(C(C)(C)C)cs4)C(F)(F)C(F)(F)C3(F)F)c2cc1OCCCC(=O)OCC [Chromophore S386, diethyl 4,4′-((2-(4-(tert-butyl)phenyl)-3-(2-(4,4″-di-tert-butyl-[2,2′:5′,2″-terthiophen]-3′-yl)-3,3,4,4,5,5-hexafluorocyclopent-1-en-1-yl)benzofuran-5,6-diyl)bis(oxy))dibutanoate]
[1]
  RC [O] (oxidation potential of ring-closed isomer): 0.99
  RO [O] (oxidation potential of ring-open isomer): 1.4
[2]
  Solubility in Rhodiasolv IRIS: >10%
[3]
  PSS (SS): 0.351
  λmax (nm): 593 nm

## CCOC(=O)CCCOc1cc2oc(-c3ccc(C(C)(C)C)cc3)c(C3=C(c4cc(-c5cc6c(s5)C(C)(C)CCC6(C)C)sc4-c4cc5c(s4)C(C)(C)CCC5(C)C)C(F)(F)C(F)(F)C3(F)F)c2cc1OCCCC(=O)OCC [Chromophore S387, ethyl 4-[(3-{2-[2,5-bis(4,4,7,7-tetramethyl-4,5,6,7-tetrahydro-1-benzothiophen-2-yl)thiophen-3-yl]-3,3,4,4,5,5-hexafluorocyclopent-1-en-1-yl}-2-(4-tert-butylphenyl)-6-(4-ethoxy-4-oxobutoxy)-1-benzofuran-5-yl)oxy]butanoate]
[1]
  RC [O] (oxidation potential of ring-closed isomer): 0.92
  RO [O] (oxidation potential of ring-open isomer): 1.29
[2]
  Solubility in Rhodiasolv IRIS: >10%
[3]
  PSS (SS): 0.409
  λmax (nm): 594 nm

## COCCCOc1cc2oc(-c3ccc(C(C)(C)C)cc3)c(C3=C(c4cc(-c5cc6c(s5)C(C)(C)CCC6(C)C)sc4-c4cc5c(s4)C(C)(C)CCC5(C)C)C(F)(F)C(F)(F)C3(F)F)c2cc1OCCCOC [Chromophore S388, 3-(2-(2,5-bis(4,4,7,7-tetramethyl-4,5,6,7-tetrahydrobenzo[b]thiophen-2-yl)thiophen-3-yl)-3,3,4,4,5,5-hexafluorocyclopent-1-en-1-yl)-2-(4-(tert-butyl)phenyl)-5,6-bis(3-methoxypropoxy)benzofuran]
[1]
  RC [O] (oxidation potential of ring-closed isomer): 0.89
  RO [O] (oxidation potential of ring-open isomer): 1.28
[2]
  Solubility in Rhodiasolv IRIS: >10%
[3]
  PSS (SS): 0.38
  λmax (nm): 600 nm

## CC(C)(C)c1ccc(-c2oc3cc(OCCN4CCOC4=O)c(OCCN4CCOC4=O)cc3c2C2=C(c3cc(-c4cc5c(s4)C(C)(C)CCC5(C)C)sc3-c3cc4c(s3)C(C)(C)CCC4(C)C)C(F)(F)C(F)(F)C2(F)F)cc1 [Chromophore S390, 3,3′-(((3-(2-(2,5-bis(4,4,7,7-tetramethyl-4,5,6,7-tetrahydrobenzo[b]thiophen-2-yl)thiophen-3-yl)-3,3,4,4,5,5-hexafluorocyclopent-1-en-1-yl)-2-(4-(tert-butyl)phenyl)benzofuran-5,6-diyl)bis(oxy))bis(ethane-2,1-diyl))bis(oxazolidin-2-one)]
[1]
  RC [O] (oxidation potential of ring-closed isomer): 0.93
  RO [O] (oxidation potential of ring-open isomer): 1.29
[2]
  Solubility in Rhodiasolv IRIS: >10%
[3]
  PSS (SS): 0.45
  λmax (nm): 593 nm

## CC(=O)Oc1cc2oc(-c3ccc(C(C)(C)C)cc3)c(C3=C(c4cc(-c5cc(C(C)(C)C)cs5)sc4-c4cc(C(C)(C)C)cs4)C(F)(F)C(F)(F)C3(F)F)c2cc1OC(C)=O [Chromophore S396, 2-(4-(tert-butyl)phenyl)-3-(2-(4,4″-di-tert-butyl-[2,2′:5′,2″-terthiophen]-3′-yl)-3,3,4,4,5,5-hexafluorocyclopent-1-en-1-yl)benzofuran-5,6-diyl diacetate]
[1]
  RC [O] (oxidation potential of ring-closed isomer): 1.18
  RO [O] (oxidation potential of ring-open isomer): 1.48
[2]
  Solubility in Rhodiasolv IRIS: >3%
[3]
  PSS (SS): 0.278
  λmax (nm): 578 nm

## COc1ccc2oc(-c3ccc(C(C)(C)C)cc3)c(C3=C(c4cc(-c5cc6c(s5)C(C)(C)CCC6(C)C)sc4-c4cc5c(s4)C(C)(C)CCC5(C)C)C(F)(F)C(F)(F)C3(F)F)c2c1 [Chromophore S400]
[1]
  RC [O] (oxidation potential of ring-closed isomer): 1.01
  RO [O] (oxidation potential of ring-open isomer): 1.29
[2]
  Solubility in Rhodiasolv IRIS: >3%
[3]
  PSS (SS): 0.306
  λmax (nm): 592 nm
